Experimental data published in patent publication US6355799B1, “Substituted benzene compounds, process for their preparation, and herbicidal and defoliant compositions containing them” (ISK Americas Incorporated, priority 1997, dated 2002).

Experiments:
Format in all cases: in vivo
[1] = system: redroot pigweed (Amaranthus retroflexus, AMARE); experiment: Pre-emerge test, greenhouse herbicide activity screening; conditions: rated 14 days after application, 0 = no damage, 100 = complete death
Outline: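 Compounds in acetone were track-sprayed at 187 l/ha, 15–1000 g ai/ha, onto sandy loam pots. Pre-emerge seeds were sown one day before spraying, with surface watering afterwards. Post-emerge plants were at the 2–3 leaf stage and sprayed with 0.25% v/v non-ionic surfactant. Injury was rated 0–100 at 14 days.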

[2] = system: barnyardgrass (Echinochloa crus-galli, ECHCG); experiment: as above; conditions: rated 14 days after application, 0 = no damage, 100 = complete death
Outline: (§1)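 Compounds in acetone were track-sprayed at 15-1000 g ai/ha (187 l/ha) on sandy loam pots: pre-emerge one day after seeding, post-emerge at 2-3 leaf stage with 0.25% v/v non-ionic surfactant. Phytotoxicity was rated 14 days later on a 0 (no damage) to 100 (complete death) scale.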

[3] = system: green foxtail (Setaria viridis, SETVI); experiment: as above; conditions: rated 14 days after application, 0 = no damage, 100 = complete death
Outline: as §1

[4] = system: ivyleaf morningglory (Ipomoea hederacea, IPOHE); experiment: as above; conditions: rated 14 days after application, 0 = no damage, 100 = complete death
Outline: as §1

[5] = system: johnsongrass (Sorghum halepense, SORHA); experiment: as above; conditions: rated 14 days after application, 0 = no damage, 100 = complete death
Outline: as §1

[6] = system: lambsquarters (Chenopodium album, CHEAL); experiment: as above; conditions: rated 14 days after application, 0 = no damage, 100 = complete death
Outline: as §1

[7] = system: large crabgrass (Digitaria sanguinalis, DIGSA); experiment: as above; conditions: rated 14 days after application, 0 = no damage, 100 = complete death
Outline: as §1

[8] = system: sicklepod (Cassia obtusifolia, CASOB); experiment: as above; conditions: rated 14 days after application, 0 = no damage, 100 = complete death
Outline: as §1

[9] = system: velvetleaf (Abutilon theophrasti, ABUTH); experiment: as above; conditions: rated 14 days after application, 0 = no damage, 100 = complete death
Outline: as §1

[10] = system: field corn (Zea mays L., var. Dekalb 535, CORN); experiment: Pre-emerge test, crop safety; conditions: rated 14 days after application, 0 = no damage, 100 = complete death
Outline: (§2)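 Visual ratings on a 0-100 scale (0 no damage, 100 all plants dead) were taken at 14 days after treatment. Rates of 15-1000 g ai/ha in acetone, 187 l/ha, were sprayed onto soil one day after planting (pre-emerge) or onto 2-3 leaf plants with 0.25% v/v surfactant (post-emerge).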

[11] = system: upland rice (Oryza sp., var. Tebonnet, RICE); experiment: Pre-emerge test, crop safety; conditions: rated 14 days after application, 0 = no damage, 100 = complete death
Outline: as §2

[12] = system: barnyardgrass (Echinochloa crus-galli, ECHCG); experiment: Post-emerge test, greenhouse herbicide activity screening; conditions: post-emerge, 14 days after application, rating scale 0-100
Outline: (§3)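 Applied at 15–1000 g ai/ha from acetone in 187 l/ha spray volume. Post-emergence applications included 0.25% v/v non-ionic surfactant and reached plants sown 8–21 days before. Pre-emergence applications were incorporated by surface watering. Efficacy or crop damage was rated on a 0–100 scale after 14 days.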

[13] = system: green foxtail (Setaria viridis, SETVI); experiment: as above; conditions: post-emerge, 14 days after application, rating scale 0-100
Outline: as §3

[14] = system: ivyleaf morningglory (Ipomoea hederacea, IPOHE); experiment: as above; conditions: post-emerge, 14 days after application, rating scale 0-100
Outline: as §3

[15] = system: johnsongrass (Sorghum halepense, SORHA); experiment: as above; conditions: post-emerge, 14 days after application, rating scale 0-100
Outline: as §3

[16] = system: lambsquarters (Chenopodium album, CHEAL); experiment: as above; conditions: post-emerge, 14 days after application, rating scale 0-100
Outline: as §3

[17] = system: large crabgrass (Digitaria sanguinalis, DIGSA); experiment: as above; conditions: post-emerge, 14 days after application, rating scale 0-100
Outline: as §3

[18] = system: redroot pigweed (Amaranthus retroflexus, AMARE); experiment: as above; conditions: post-emerge, 14 days after application, rating scale 0-100
Outline: as §3

[19] = system: sicklepod (Cassia obtusifolia, CASOB); experiment: as above; conditions: post-emerge, 14 days after application, rating scale 0-100
Outline: as §3

[20] = system: velvetleaf (Abutilon theophrasti, ABUTH); experiment: as above; conditions: post-emerge, 14 days after application, rating scale 0-100
Outline: as §3

[21] = system: field corn (Zea mays L., var. Dekalb 535, CORN); experiment: Post-emerge test, crop safety; conditions: post-emerge, 14 days after application, rating scale 0-100
Outline: as §1

[22] = system: upland rice (Oryza sp., var. Tebonnet, RICE); experiment: Post-emerge test, crop safety; conditions: post-emerge, 14 days after application, rating scale 0-100
Outline: as §1

Cn1c(C(F)(F)F)cc(=O)n(-c2c(F)cc(Cl)c(O)c2NC(=O)c2ncccn2)c1=O [2-102]
Pre-emerge Herbicidal Activity, phytotoxicity rating (0-100), AMARE ([1]; 63 g ai/ha): 30 | Pre-emerge Herbicidal Activity, phytotoxicity rating (0-100), AMARE ([1]; 250 g ai/ha): 0 | Pre-emerge Herbicidal Activity, phytotoxicity rating (0-100), ECHCG ([2]; 63 g ai/ha): 0 | Pre-emerge Herbicidal Activity, phytotoxicity rating (0-100), ECHCG ([2]; 250 g ai/ha): 0 | Pre-emerge Herbicidal Activity, phytotoxicity rating (0-100), SETVI ([3]; 63 g ai/ha): 0 | Pre-emerge Herbicidal Activity, phytotoxicity rating (0-100), SETVI ([3]; 250 g ai/ha): 0 | Pre-emerge Herbicidal Activity, phytotoxicity rating (0-100), IPOHE ([4]; 63 g ai/ha): 0 | Pre-emerge Herbicidal Activity, phytotoxicity rating (0-100), IPOHE ([4]; 250 g ai/ha): 0 | Pre-emerge Herbicidal Activity, phytotoxicity rating (0-100), SORHA ([5]; 63 g ai/ha): 0 | Pre-emerge Herbicidal Activity, phytotoxicity rating (0-100), SORHA ([5]; 250 g ai/ha): 0 | Pre-emerge Herbicidal Activity, phytotoxicity rating (0-100), CHEAL ([6]; 63 g ai/ha): 0 | Pre-emerge Herbicidal Activity, phytotoxicity rating (0-100), CHEAL ([6]; 250 g ai/ha): 0 | Pre-emerge Herbicidal Activity, phytotoxicity rating (0-100), DIGSA ([7]; 63 g ai/ha): 0 | Pre-emerge Herbicidal Activity, phytotoxicity rating (0-100), DIGSA ([7]; 250 g ai/ha): 0 | Pre-emerge Herbicidal Activity, phytotoxicity rating (0-100), CASOB ([8]; 63 g ai/ha): 0 | Pre-emerge Herbicidal Activity, phytotoxicity rating (0-100), CASOB ([8]; 250 g ai/ha): 0 | Pre-emerge Herbicidal Activity, phytotoxicity rating (0-100), ABUTH ([9]; 63 g ai/ha): 0 | Pre-emerge Herbicidal Activity, phytotoxicity rating (0-100), ABUTH ([9]; 250 g ai/ha): 0 | Pre-emerge phytotoxicity rating (0-100), crop damage, CORN ([10]; 63 g ai/ha): 0 | Pre-emerge phytotoxicity rating (0-100), crop damage, CORN ([10]; 250 g ai/ha): 0 | Pre-emerge phytotoxicity rating (0-100), crop damage, RICE ([11]; 63 g ai/ha): 0 | Pre-emerge phytotoxicity rating (0-100), crop damage, RICE ([11]; 250 g ai/ha): 0 | phytotoxicity rating ECHCG ([12]; 63 g ai/ha): 0 | phytotoxicity rating ECHCG ([12]; 250 g ai/ha): 0 | phytotoxicity rating SETVI ([13]; 63 g ai/ha): 0 | phytotoxicity rating SETVI ([13]; 250 g ai/ha): 0 | phytotoxicity rating IPOHE ([14]; 63 g ai/ha): 0 | phytotoxicity rating IPOHE ([14]; 250 g ai/ha): 0 | phytotoxicity rating SORHA ([15]; 63 g ai/ha): 0 | phytotoxicity rating SORHA ([15]; 250 g ai/ha): 0 | phytotoxicity rating CHEAL ([16]; 63 g ai/ha): 0 | phytotoxicity rating CHEAL ([16]; 250 g ai/ha): 0 | phytotoxicity rating DIGSA ([17]; 63 g ai/ha): 0 | phytotoxicity rating DIGSA ([17]; 250 g ai/ha): 0 | phytotoxicity rating AMARE ([18]; 63 g ai/ha): 0 | phytotoxicity rating AMARE ([18]; 250 g ai/ha): 40 | phytotoxicity rating CASOB ([19]; 63 g ai/ha): 0 | phytotoxicity rating CASOB ([19]; 250 g ai/ha): 0 | phytotoxicity rating ABUTH ([20]; 63 g ai/ha): 0 | phytotoxicity rating ABUTH ([20]; 250 g ai/ha): 30 | phytotoxicity rating CORN ([21]; 63 g ai/ha): 0 | phytotoxicity rating CORN ([21]; 250 g ai/ha): 0 | phytotoxicity rating RICE ([22]; 63 g ai/ha): 0 | phytotoxicity rating RICE ([22]; 250 g ai/ha): 0
